According to publication PMC12305494, “Discovery of PXR Antagonist MI891 and PXR Degrader MI1013 and Their Roles in Hepatic Gene Regulation” (Journal of Medicinal Chemistry, 2025):
Where “and” joins values, the source holds several entries; their conditions need not be identical. Equal values may be shown once.

Legend:
[1] = Plasma stability, mouse plasma; assay type: in vitro ADME; settings: up to 120 min, read-out: Plasma stability, t1/2 (min), mouse
Description: The protocols and reagents for the plasma protein binding assay and metabolic stability testing in human and mouse liver microsomes are detailed in our previous report. Briefly, metabolic stability of compounds was assessed at a single concentration (5 μM) at t = 0, 10, 30, and at t = 45 min. The stability of compounds was tested in human and mouse microsomes (ThermoFisher Scientific). Compounds were tested in triplicate with or without NADPH wells as a negative control for cytochrome P450 metabolism. In addition to hepatic metabolism, compounds were also subjected to degradation/modification by enzymes in human (VWR International) and mouse (Biomedica, CZ) plasma for t = 0, 30, 60, and at t = 120 min. Each assay included a substrate with known activity as a positive control. Time points were analyzed by LC/MS/MS. The peak area for the parent compound is compared to the time zero sample in order to assess the amount of remaining compound.

PXR = biological target: T1, PXR (Homo sapiens, UniProt O75469); assay: cell-based
T1 sequence (O75469 1-434): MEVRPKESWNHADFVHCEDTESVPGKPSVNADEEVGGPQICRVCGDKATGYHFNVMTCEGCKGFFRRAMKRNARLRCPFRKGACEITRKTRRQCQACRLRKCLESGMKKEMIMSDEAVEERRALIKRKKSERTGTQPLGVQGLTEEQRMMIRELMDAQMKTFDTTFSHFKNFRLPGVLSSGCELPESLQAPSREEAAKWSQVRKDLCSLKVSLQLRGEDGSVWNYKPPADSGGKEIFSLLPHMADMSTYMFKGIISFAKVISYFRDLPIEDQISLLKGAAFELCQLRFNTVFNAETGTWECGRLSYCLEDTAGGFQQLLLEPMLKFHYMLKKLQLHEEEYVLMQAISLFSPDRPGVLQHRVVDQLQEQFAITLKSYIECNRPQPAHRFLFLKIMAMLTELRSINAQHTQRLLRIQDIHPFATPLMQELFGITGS

AhR = AhR (Homo sapiens, UniProt P35869); assay: AhR agonist reporter assay; assay type: cell-based; settings: 10 µM MI891
Description: For the farnesoid X receptor (FXR) luciferase gene reporter assay, the full-length expression vector was paired with pFXRE-luc luciferase construct. The p1A1-luc construct was used in the aryl hydrocarbon receptor (AhR) assays with pRL-TK for normalization. Gal4-LXR-α/β, and Gal4-PPAR-γ constructs were used with the pGAL4 UAS-luc construct. For the VDR assay, expression vector pSG5-hVDR together with pVDRE-luc constructs was used. Firefly and Renilla luciferase activities were analyzed using a Dual reporter assay (Promega). For the nuclear receptor assays, prototype ligands were used at the following concentrations: Calcitriol for VDR (100 nM), GW3965 for LXRα and LXRβ (10 μM), 6-OCA for FXR (1 μM), fenofibrate for PPARα (10 μM), estradiol for ERα and β (10 μM), rosiglitazone for PPARγ (10 μM), 3-MC for AhR (5 μM), and TCPOBOP for mCAR (10 μM). Detailed descriptions and protocols are detailed in our recent publication. , […]
hydrophobic interactions. (F) Superimposed diagram of PXR bound with agonist (SJPYT-328) and antagonists (MI891 and SJPYT-331) to differentiate the agonist and antagonist interactions with helix 12 (H12). The interaction of the agonist with PXR residue (L428) is circled. (G) Extended nuclear receptor selectivity profile. […]

Sequence of AhR (P35869 11-848, species assumed): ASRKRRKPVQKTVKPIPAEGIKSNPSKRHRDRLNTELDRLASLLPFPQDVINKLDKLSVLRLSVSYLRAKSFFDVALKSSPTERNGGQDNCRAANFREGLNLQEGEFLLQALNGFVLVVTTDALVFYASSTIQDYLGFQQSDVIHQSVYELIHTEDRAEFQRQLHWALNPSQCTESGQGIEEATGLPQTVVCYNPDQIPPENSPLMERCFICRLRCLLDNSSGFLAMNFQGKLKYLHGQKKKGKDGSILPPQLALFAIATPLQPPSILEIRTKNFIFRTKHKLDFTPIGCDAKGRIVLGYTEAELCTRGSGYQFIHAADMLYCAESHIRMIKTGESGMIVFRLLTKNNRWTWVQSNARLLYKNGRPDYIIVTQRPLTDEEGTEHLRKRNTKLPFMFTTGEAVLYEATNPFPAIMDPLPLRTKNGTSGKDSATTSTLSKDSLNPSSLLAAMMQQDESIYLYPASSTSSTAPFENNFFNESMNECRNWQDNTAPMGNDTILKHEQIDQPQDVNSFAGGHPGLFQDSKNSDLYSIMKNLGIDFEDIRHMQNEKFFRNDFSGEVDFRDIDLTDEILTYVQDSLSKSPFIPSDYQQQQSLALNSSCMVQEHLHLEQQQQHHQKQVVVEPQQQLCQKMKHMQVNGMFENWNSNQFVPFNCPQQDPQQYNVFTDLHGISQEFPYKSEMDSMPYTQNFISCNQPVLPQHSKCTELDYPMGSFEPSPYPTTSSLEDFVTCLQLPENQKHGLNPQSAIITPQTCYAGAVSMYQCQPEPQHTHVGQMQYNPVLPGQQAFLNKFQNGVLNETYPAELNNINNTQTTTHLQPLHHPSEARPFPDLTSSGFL

half-life [1]: > 120 min | IC50 (PXR; IC50, antagonistic activity for rifampicin (1 μM)-activated PXR, rifampicin 1 μM, HepG2): 0.378 µM | IC50 (PXR; IC50, antagonistic mode, MI891 + Rif-5 μM, rifampicin 5 μM, HepG2): 3.5 µM | IC50 (PXR; PXR antagonism: PXR inhibition (IC50, μM), antagonist mode with 10 μM rifampicin, mean ± SD, n = 3): 3.8 µM and 3.76 µM | agonistic effect on AhR (AhR): no agonistic effects
Compound: NC(=O)c1cc(Cn2cc(-c3c(-c4ccc(Cl)cc4)nc4c(F)cc(F)cn34)nn2)ccc1Cl [Compound 11, 2-Chloro-5-((4-(2-(4-chlorophenyl)-6,8-difluoroimidazo[1,2-a]pyridin-3-yl)-1H-1,2,3-triazol-1-yl)methyl)-benzamide]
